Paper PMC4268712, “Steroidal and non-steroidal third-generation aromatase inhibitors induce pain-like symptoms via TRPA1” (Nature Communications, 2014)
pEC50: −log10 of the molar value.

How the values were obtained:
[1] = target: T1, transient receptor potential ankyrin 1 (TRPA1) (Homo sapiens, UniProt O75762); test: calcium imaging (and whole-cell patch clamp) in hTRPA1-HEK293 cells, blocked by HC-030031, absent in untransfected cells; type: cell-based
[2] = target: T1, transient receptor potential ankyrin 1 (TRPA1); test: calcium imaging in HEK293 cells transfected with wild-type hTRPA1 ([…]); type: cell-based

T1 sequence (O75762 whole entry): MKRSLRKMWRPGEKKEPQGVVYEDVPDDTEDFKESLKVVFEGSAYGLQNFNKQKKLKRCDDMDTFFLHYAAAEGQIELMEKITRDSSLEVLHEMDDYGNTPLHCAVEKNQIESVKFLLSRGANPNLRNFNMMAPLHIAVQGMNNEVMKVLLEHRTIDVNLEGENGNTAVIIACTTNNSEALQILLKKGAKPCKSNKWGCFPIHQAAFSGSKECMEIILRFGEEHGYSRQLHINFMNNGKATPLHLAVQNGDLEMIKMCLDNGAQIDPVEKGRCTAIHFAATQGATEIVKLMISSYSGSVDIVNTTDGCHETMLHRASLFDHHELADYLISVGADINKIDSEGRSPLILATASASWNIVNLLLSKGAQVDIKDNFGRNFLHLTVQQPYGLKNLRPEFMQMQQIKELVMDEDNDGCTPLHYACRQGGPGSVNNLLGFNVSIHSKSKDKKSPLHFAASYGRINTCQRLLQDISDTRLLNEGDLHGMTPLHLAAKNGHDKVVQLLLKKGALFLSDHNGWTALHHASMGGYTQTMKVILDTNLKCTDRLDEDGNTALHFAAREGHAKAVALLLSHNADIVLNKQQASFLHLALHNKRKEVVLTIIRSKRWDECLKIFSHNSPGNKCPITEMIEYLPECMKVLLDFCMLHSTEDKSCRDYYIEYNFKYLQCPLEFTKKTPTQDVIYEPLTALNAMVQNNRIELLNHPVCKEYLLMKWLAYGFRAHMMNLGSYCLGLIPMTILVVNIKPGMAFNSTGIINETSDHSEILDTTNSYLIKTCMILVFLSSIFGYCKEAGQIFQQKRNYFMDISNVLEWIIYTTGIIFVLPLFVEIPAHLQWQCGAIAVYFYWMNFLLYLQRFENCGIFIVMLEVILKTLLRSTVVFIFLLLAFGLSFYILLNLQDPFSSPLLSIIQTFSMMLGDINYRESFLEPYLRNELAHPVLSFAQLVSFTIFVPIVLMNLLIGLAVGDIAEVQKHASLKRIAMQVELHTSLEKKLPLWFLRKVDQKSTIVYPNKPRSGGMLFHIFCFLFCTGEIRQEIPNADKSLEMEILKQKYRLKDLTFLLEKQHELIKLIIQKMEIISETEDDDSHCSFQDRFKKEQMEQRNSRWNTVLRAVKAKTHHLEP

SMILES	pEC50 [1]	calcium imaging in HEK293 cells transfected with wild-type hTRPA1 (100 μM) [2]
CC(C)(C#N)c1cc(Cn2cncn2)cc(C(C)(C)C#N)c1 [ANA, anastrozole]	3.87	
C=C1C[C@@H]2[C@H](CC[C@]3(C)C(=O)CC[C@@H]23)[C@@]2(C)C=CC(=O)C=C12 [EXE, exemestane]	4.24	
N#Cc1ccc(C(c2ccc(C#N)cc2)n2cncn2)cc1 [LTZ, letrozole]	4.16	
CC1CCC(C(C)C)C(O)C1 (stereo not shown) [menthol]		HEK293 cells transfected with the cDNA codifying for wild-type hTRPA1 (WT) respond to all the drugs
